Measurements taken from a melting point compilation (Tetko et al.; mined from patent text by program, amines drawn as free bases though some values may be those of a salt).

melting point [°C]	SMILES
245 to 247	Cc1nn(-c2ccc(F)cc2F)cc1C(=O)O
201 to 203	COC(=O)c1ccc(OCCCN(C(=O)c2ccc(C(C)(C)C)cc2)c2ccc(Cl)cc2)cc1
148 to 150	O=P(O)(O)CNCCc1ccccc1
132 to 134	N#CC(Cc1ccccc1Cl)C(=O)O (stereo unspecified)
266	Cc1ccc(Cl)c2sc(O)nc12
40 to 41	CCC(=O)c1ccc(SCCCBr)cc1
163 to 165	CNc1ccc2c(C)nc(CC3OC(COC(=O)c4ccccc4)C(O)C3O)n2n1 (stereo unspecified)
161 to 163	COc1ccc(C(Cc2ccncc2)c2ccc(C(=O)O)cc2)cc1OC1CCCC1 (stereo unspecified)
107 to 108	CSc1ncc2c(Cl)ccn2n1
71 to 72	COc1ccc(COC2C=C(C)C(=NN(C)C)CC(C)(C)C2OC)cc1 (stereo unspecified)
282 to 284	COc1nc2ncccc2c2nc(SCc3ccccc3)nn12
116	CC(C)(C)OC(=O)N[C@H](CO)Cc1ccc(-c2ccccc2)cc1
117 to 119	N#Cc1c(Cl)ccc(Cl)c1Cl
111 to 113	Cc1c(O)c(=O)ccn1CCCO
124 to 126	CCOC(=O)C1=C(C)N=C(SCc2ccc(OC)cc2)N(C(=O)OCC)C1c1cccc(Cl)c1Cl (stereo unspecified)
152	CCSc1ccc(NC(=S)NC(=O)OC)c([N+](=O)[O-])c1
236 to 238	CCCCCNc1cccc(C(=O)O)c1C(=O)O
183 to 185	O=C(O)COc1c(Br)cc(-c2ccc(-c3c(Cc4ccccc4)sc4ccccc34)cc2)cc1Br
166 to 167	O=C(Cc1ccccc1)N[C@@H]1C(=O)N2C[C@@H](O)CS[C@H]12
110	O=S(=O)(CCl)c1ccc(O)cc1
146 to 149	CCN(CC)CCOC(=O)c1ccc(NC(=O)c2ccc(-c3ccccc3)cc2)cc1
197 to 198	CCc1c(OC)cc(C)c(C=CC(C)=CC=CC(C)=CC(=O)O)c1C
212 to 213	COc1ccc(C(=O)Nc2nnn[nH]2)c(OC(C)C)c1
124 to 125	CCN1CCCC1CNC(=O)c1c(OC)c(Cl)cc(Br)c1OC (stereo unspecified)
180	Cc1ccc(COc2ccc(C(=O)NC[C@@H](C(=O)NO)N3CCN(S(C)(=O)=O)CC3)cc2)cc1

melting point [°C]	SMILES
90	COC(=O)CC(C)(C)C(C)(C)S(=O)(=O)c1ccc(C)cc1
250 to 254	CC(C)C1(C)N=C(c2c(C(=O)O)ccc3c2nnn3C)NC1=O (stereo unspecified)
136 to 137	CC(C)(CCCN)C(Cc1c[nH]c([N+](=O)[O-])n1)=NO
174	CC(=O)N(C(C)=O)c1cnn(-c2cccc(C(F)(F)F)c2)c(=O)c1-c1cccc(C(F)(F)F)c1
70	CC1CCCN(CC(O)c2ccccc2)C1 (stereo unspecified)
191	CCS(=O)(=O)c1cnc2c(c1)nc(CC(C)(C)C)n2CC1CCOCC1
107 to 109	CCCCC(=O)NC1CCN(CCNC(=O)c2nn(C(C)C)c3ccccc23)CC1
108 to 111	CCOC(=O)Cc1ccc(NC(=O)C(COC2CCCCO2)NS(=O)(=O)c2ccc(Cl)c([N+](=O)[O-])c2)cc1 (racemic)
125 to 126	COC(=O)c1ccc2ccn(Cc3ccc(OCc4ccc5ccccc5n4)cc3)c2c1
204 to 205	Cc1ccc2cccc(OCc3c(C)ccc(N)c3C)c2n1
66 to 67	C=CCc1c(C=O)cccc1OCc1ccccc1
48 to 49	CCOC(=O)CCCC(=O)c1ccc(OCCCCCBr)c(CCC(=O)OCC)c1
72 to 75	N=C(NO)c1nn(-c2c(Cl)cc(C(F)(F)F)cc2Cl)c(C=O)c1SC(F)(F)F
148 to 149	Fc1ccc(-c2nc(=S)c3c(o2)CCCC3)cc1
202 to 207	S=c1[nH]c2ccc(Cl)cc2c2nc(-c3ccco3)nn12
148 to 150	Cc1cc(N)n(-c2ccc(Cl)nn2)n1
224 to 229	Oc1ccc(-c2cc3ccccc3[nH]2)cc1
101 to 103	COCC(=O)Oc1cc(-n2c(=O)cc(C(F)(F)F)n(C)c2=O)c(F)cc1Cl
124	CCC(C)NC(=O)Nc1ccccc1C(=O)OC (stereo unspecified)
87 to 90	O=c1oc(-c2ccccc2)cc(O)c1C(Sc1ccccc1)C1CCCCC1 (stereo unspecified)
63 to 64	Cc1ccc(-c2ccc(-c3nnn(CCCCCCc4cccnc4)n3)cc2)cc1C
212 to 214	NC(=O)c1cccc(-c2nc(-c3ccccc3)c(-c3nc4ccccc4c(=O)n3-c3ccccc3Cl)s2)c1
262 to 265	O=S(=O)(Nc1nc2ccccc2nc1Nc1cccc2ccccc12)c1ccc(Cl)cc1
209	CC(C)c1noc(-c2ncn3c4cccc(Cl)c4c(=O)n(C)c23)n1
165 to 167	CCCCNS(=O)(=O)c1ccc2nc3scc(C)n3c(=O)c2c1

melting point [°C]	SMILES
97 to 98	ClCCCn1cc2cc(OCc3ccccc3)ccc2n1
234	COc1ccc(-c2coc3c(C)c(O)ccc3c2=O)cc1OC
111 to 114	CN1C(=O)N(C[C@H](C(=O)O)[C@@H](CC2CCCC2)C(=O)N2CCCCC2)C(=O)C1(C)C
82 to 84.5	CCc1cc(CC)nc(S)n1
231 to 232	O=C(c1ccccc1)N1CCC2(CCc3c2[nH]c2ccccc32)CC1
203 to 204	COc1ccc2c(c1)CCC1=C2CCC(=O)N1
80 to 82	CC1(c2ccc3cc(Br)ccc3c2)OCCO1
99 to 101	COC(=O)[C@H]1CN(c2cc(F)c(N3CCSCC3)c(F)c2)C(=O)O1
> 300	O=C(Nc1ccc2ncnc(Nc3cc(Cl)c(Cl)cc3F)c2c1)C(Cl)Cl
95.9 to 97	CCCC(CC1CCc2c(cccc2OCC(=O)OC)C1)=NO (stereo unspecified)
91 to 94	CCOC(=O)C1=C(C)Nc2ccnc(OCC)c2C1c1ccccc1C(F)(F)F (stereo unspecified)
144	C#CCn1c2ccccc2c2sccc(=O)c21
110 to 111	CCNC(=O)n1ncc2ccc(OC(C)=O)c(CC3CO3)c21 (stereo unspecified)
100	CCCCNC(=O)[C@@H](C[C@H](O)[C@H](CC1CCCCC1)N=[N+]=[N-])C(C)C
205	ClCCCOc1ccccc1Nc1nc(Cl)nc2[nH]cnc12
189	N#Cc1c(N2CCN(C(=O)c3cccs3)CC2)c2cccnc2n(CC2CC2)c1=O
140 to 141	CC(C)COC(=O)Nc1cccc(-c2ccnc3c(-c4cccs4)cnn23)c1
131 to 133	CCOC(=O)c1cc(=O)cc(-c2ccc(OC)cc2)o1
204 to 206	CS(=O)(=O)c1ccc(-c2nc(C(F)(F)F)nc(OS(=O)(=O)c3cccc4ccccc34)c2-c2ccccc2)cc1
82	CCCCCCCCCCCC1=NCCN1
120 to 122	CCOC(=O)c1cn(Cc2ccccc2OC)c2sc(-c3ccc(N)cc3)c(CN(C)Cc3ccccc3)c2c1=O
225 to 228	NC(=O)CN1C(=O)[C@@H](N)[C@H](c2ccccc2)Sc2cc(Cl)ccc21 (relative stereo)
125 to 126	COc1ccc(S(=O)(=O)N2CC(C)(C)CN(S(=O)(=O)c3ccc(OC)cc3)C2C(=O)NO)cc1
72 to 74	CCCC(=NOCC)C1=C(O)CC(c2ccc(S(C)=O)cc2)CC1=O (stereo unspecified)
71 to 74	COc1ccc(C(=O)C(CCC(=O)c2ccc(F)cc2)c2ccc(OC)cc2)cc1 (stereo unspecified)

melting point [°C]	SMILES
67	CC(C)(O)C[C@@H]1CO[C@](C)([C@H]2CC[C@H]3[C@@H](O)CCC[C@@]32C)C1
175 to 176	CC(C)c1cccc(C(C)C)c1NC(=O)NCC(c1ccccc1)c1ccccc1
176 to 177	Cc1ncc(CNC(=O)c2sc(-n3cnn(Cc4ccc(F)cc4)c3=O)nc2C)s1
181 to 183	CC(C)(C)CN1C(=O)N(CC(=O)O)N=C(c2ccccc2Cl)c2cc(Cl)ccc21
211 to 213	O=C(O)c1cc(Cl)c(OCc2ccccc2)c(Cl)c1
69 to 70	O=C(CC(=O)C1CC1)c1cccnc1
140 to 141	CC(=O)Nc1ccc(Sc2ccc(Cl)cc2)cc1
63 to 65	Cc1c(F)ccc(C#N)c1Cl
160 to 170	O=C(O)COc1c(Cl)cc2c(-c3ccccc3F)noc2c1Cl
111 to 112	CCCCNC(=O)NC(=O)c1cc([N+](=O)[O-])cnc1C
125 to 128	CCOC(=O)C(=NOC)c1csc(NC(=O)OCC(Cl)(Cl)Cl)n1
128 to 131	CCCCCCCCCCCCCCCCOC(=O)c1ccc(Cl)c(Nc2cc(=O)n(-c3c(Cl)cc(Cl)cc3Cl)n2C(=O)OCc2ccccc2)c1
169 to 170	CCc1cc(C#N)cc2c(NCc3ccc(OC)c(Cl)c3)c(C(=O)Oc3c(F)c(F)c(F)c(F)c3F)cnc12
203 to 205	COc1ccc(C(=O)Nc2ccccc2)cc1NCc1cccc(Cl)c1
50	CC(C)(C)OC(=O)CC(Cc1ccccc1)NC(=O)C1Cc2ccccc2N1S(=O)(=O)c1ccc(-c2cccc(C(F)(F)F)c2)cc1 (stereo unspecified)
138 to 140	CCCc1nc2c(N)nc3cc(OCCCCCCNS(C)(=O)=O)ccc3c2n1CCCCNS(C)(=O)=O
112	COc1ccc(Cn2c(=O)n(C3CCCCC3)c3cc(Cl)ccc32)c(OC)c1
119 to 120	CC(C)OC(=O)c1cc(N2C(=O)C(C)C(C)N(C)C2=O)c(F)cc1Cl (stereo unspecified)
29 to 30	CCCCCCCCCCCCCCCCN(CCO)CCCCCCN(CCO)CCCCCCCCCCCCCCCC
98 to 99	Nc1ncc(CCC2CCCCC2)s1
147 to 149	CCOc1nc(C)c2cc(OC)c(OC)cc2c1C(=O)OC
73 to 76	N#CCN[C@H]1CCc2c(F)cc(F)cc2C1
136 to 137	CC1(C)C(=O)Oc2ccc3ccc(Cn4cncn4)cc3c21
165 to 167	CNc1nc2c(C)cccc2c2c1CCN2c1ccccc1C

SMILES	melting point [°C]
c1ccc(Cn2cnc3ccc(NC4=NCCN4)cc32)cc1	174 to 175
Clc1cc(Cl)c(CBr)c(Cl)c1	51 to 52
